For 89 compounds, melting point results are on record in a melting point compilation (Tetko et al.; mined from patent text by program, amines drawn as free bases though some values may be those of a salt).

SMILES strings stand for the structures. A value given as a limit tells only on which side of the number the result lay.

In turn, `CNc1ccc(CN2C(=O)C(C)(c3ccccc3Cl)c3cc(Cl)ccc32)c(OC)c1` (centres undefined) had a melting point of 226 °C.

`CNCCCOc1cc(F)c(-c2c(Cl)nc(-c3cnccn3)nc2N[C@@H](C)C(F)(F)F)c(F)c1` showed a melting point of 48 to 50 °C.

In turn, `CC[C@@H](NC(=O)N1CC(=O)NCC(Cc2cc(Cl)ccc2OC)C1=O)C(=O)Nc1nnn[nH]1` (some centres undefined) came in with a melting point of 141 to 142 °C.

Compound `O=C(NCc1ccccc1O)[C@@H]1CCCN(c2cccc3c2C(=O)N(Cc2ccncc2)C3=O)C1` yielded a melting point of 181 to 182 °C.

`CC(C)C1NS(=O)(=O)N(CCl)C1=O` (centres undefined) displayed a melting point of 71 to 72 °C.

Take `CN(C)NC(=O)N(OCc1ccccc1)C1c2ccccc2Oc2ccccc21`: the melting point stood at 117 °C.

As to `CC(C)(C)OC(=O)N(C(=O)OC(C)(C)C)c1c(C#CBr)c(C#N)nn1-c1c(Cl)cc(C(F)(F)F)cc1Cl`, the melting point lay within 130 to 131 °C.

Regarding `Cc1ccn(-c2ccc(C(=O)C3c4ccccc4NC=C4N=NNN43)c(Cl)c2)n1` (centres undefined), the melting point lay within 110 to 114 °C.

Compound `Cc1cn(C(C)C(=O)N(C)C)nc1-c1ccccc1` (centres undefined) yielded a melting point of 87 to 89 °C.

On to `Cc1csc2cc(C(=O)O)ccc12`, for which the melting point lay in the range of 230 to 232 °C.

Regarding `O=C1c2ccccc2C(=O)N1CCCN1CCC(c2noc3cc(F)ccc23)CC1`, the melting point fell in the range of 128 to 130 °C.

`Cc1cc2cccc(N=C3SC[C@@H]4Cc5ccccc5CN34)c2cn1` displayed a melting point of 156 °C.

The compound `Cc1c(-c2ccccc2)[nH]c(N)c1C(N)=O` came in with a melting point of 195 to 197 °C.

Turning to `CNC(=Nc1cc(Cl)ccc1N1CCOCC1)NC`, the melting point fell in the range of 145 to 146 °C.

`CCOC(=O)C1(c2ccc3c(c2)OCC(Cc2ccc(-c4ccccc4)cc2)C3=O)CCCC1` (centres undefined) came in with a melting point of 50 to 56 °C.

As to `O=C(CN1CC2C(=O)N(c3cc(Cl)cc(Cl)c3)C(=O)C2C1)c1ccc(Br)cc1` (centres undefined), the melting point is 150 °C.

With `CCCCCCC(C)(C)c1cc(OCc2ccccc2)c(C2=C(C(C)(C)C(N)=O)CCC(C)C2)c(OCc2ccccc2)c1` (centres undefined), the melting point was in the range of 113 to 114 °C.

`COc1ccc(-c2cc3cc(OC)cc([N+](=O)[O-])c3o2)cc1` came in with a melting point of 141 °C.

On to `Nc1nc2c(Oc3ccccc3)cccc2s1`, for which the melting point was in the range of 135 to 137 °C.

In the case of `CCCCc1cn(Cc2ccc(-c3ccccc3C(=O)OC)cc2)c2cc(C(=O)N3CCCC3)ccc2c1=O`, the melting point was 191 °C.

`CCCN1CCc2cc(NC(=O)C(=O)N[C@H]3CCOC3O)ccc21` (some centres undefined) had a melting point of 120 to 122 °C.

Turning to `O=c1[nH]c2ncc(-c3ccc4[nH]ncc4c3)nc2n1CC1CCCCC1`, the melting point lay within 311 to 313 °C.

Turning to `CCNC(=O)Nc1nc2cc(-c3cccnc3)cc(OCCN(C)C)n2n1`, the melting point lay within 200 to 202 °C.

Take `CC(C)(C)c1ccc(-c2cc(Oc3ccc4[nH]ccc4c3)ncn2)cc1`: the melting point is 143 to 145 °C.

For the compound `CCOC(=O)c1cnc2c(N)cccc2c1`, the melting point is 94 to 96 °C.

With `COc1ccc(C[C@H](C)NS(=O)(=O)c2ccccc2)cc1`, the melting point lay in the range of 74.5 to 76 °C.

For the compound `CC=CCSc1cc(C(=O)O)cc(N)c1-c1ccccc1`, the melting point is 102 to 104 °C.

On to `CSc1cc(C)nc(SC)c1NC(=O)CCCCSc1nc2c(C)c(Cl)cc(C(C)C)c2o1`, for which the melting point fell in the range of 155 to 156 °C.

In turn, `NC(=O)[C@@H]1[C@H](Nc2c(Br)cnc3[nH]c(-c4ccc(N5CCOCC5)cc4)nc23)[C@H]2C=C[C@@H]1C2` came in with a melting point of 283 to 284 °C.

In turn, `COc1cccc(Oc2cccc(C#CC(C)N(O)C(N)=O)c2)n1` (centres undefined) gave a melting point of 90 to 91 °C.

Compound `CCC1CC(N)=NN1c1ccccc1` (centres undefined) returned a melting point of 123 to 125 °C.

For `CCn1c(Oc2cccc(NS(C)(=O)=O)c2)nnc1[C@@H](C)NS(=O)(=O)c1ccc(Cl)c(Cl)c1`, the melting point lay within 117 to 118 °C.

In turn, `CCO/C(=N/OC(C)=O)C1Cc2cc(C(=O)c3ccccc3F)c(O)c(Cl)c2O1` (centres undefined) came in with a melting point of 111 to 112 °C.

In the case of `CCCO/N=C(\C(=O)OC)c1csc(N)n1`, the melting point was in the range of 115 to 116 °C.

In turn, `O=[N+]([O-])c1ccccc1N1CCCc2ccccc21` displayed a melting point of 69 to 71 °C.

As for `O=C(NCCCc1ccncc1)N(CCC12CC3CC(CC(C3)C1)C2)CC(F)(F)F`, the melting point lay in the range of 106 to 107 °C.

The compound `O=C(NCCc1cccc2ccccc12)C(F)(F)F` yielded a melting point of 79 to 80 °C.

Turning to `Cc1ccc(Cc2nc3cc(-c4ccc(-c5ccccc5)cc4)c(Cl)cc3[nH]2)cc1P(=O)(O)O`, the melting point was greater than 220 °C.

The compound `N#CN=C1NCCN1Cc1cccnc1` returned a melting point of 126 to 128 °C.

`O=C(C1CCN(c2ccncc2)CC1)N1CCCN(S(=O)(=O)c2ccc3ccccc3c2)CC1` gave a melting point of 178 to 180 °C.

On to `CSc1cc(C)nc(SC)c1[N+](=O)[O-]`, for which the melting point is 172 to 176 °C.

On to `CCCc1c(-c2cc(=O)c3c(O)cc(OCC(=O)OCC)cc3o2)ccc(OC)c1O`, for which the melting point was found to be 138 °C.

Compound `COc1ccc(-c2cnc[nH]c2=O)cc1OC` showed a melting point of 205 to 206 °C.

In turn, `O=C1C=C(CCCCC#CCCCC#CCO)C(=O)c2ccccc21` displayed a melting point of 88 to 89.5 °C.

As for `NCC(O)C1=CC2(CCCC2)c2ccccc21` (centres undefined), the melting point was 76 to 78 °C.

Turning to `CCOCc1nc2c(cc(C)n3nnnc23)n1CC(C)C`, the melting point lay within 158 to 160 °C.

Turning to `CN(C)CCNC(=O)c1ccc(S(N)(=O)=O)cc1`, the melting point fell in the range of 150 to 151 °C.

In turn, `CCn1cnc(S(=O)(=O)O)c1` registered a melting point of 278 °C.

Turning to `COc1cc(C(=O)n2ccnc2)cc([N+](=O)[O-])c1OC`, the melting point was 136 to 137 °C.

In turn, `C1=C(c2ccccc2)CCN(C2CC=C(c3ccccn3)CC2)C1` (centres undefined) displayed a melting point of 143 to 144 °C.

Compound `Cc1ncc2c(n1)-c1ccc(Cl)cc1C(c1ccccc1Cl)=[N+]([O-])C2` gave a melting point of 215 to 216 °C.

Compound `CCOc1nc(=O)n(C(=O)Nc2cccc(Cl)c2)s1` displayed a melting point of 141 °C.

Take `CC(C)(C)OC(=O)N1CCCN(c2cncc(-c3cccc([N+](=O)[O-])c3)c2)CC1`: the melting point fell in the range of 129 to 130 °C.

`NS(=O)(=O)c1cc(C(=O)O)cc(SCc2ccco2)c1Oc1ccccc1` returned a melting point of 214 to 216 °C.

The compound `CC(C)(C)C(NC(=O)c1ccc(Cl)cc1)NC(=NC#N)Nc1c(F)cccc1F` (centres undefined) had a melting point of 211 to 213 °C.

Regarding `CN1CCN(c2cccc(-n3cnc4cc(C=O)ccc43)c2)CC1`, the melting point lay in the range of 199 to 201 °C.

In the case of `CC(C)(C)C(=O)C(Cl)Oc1ccc(-c2ccccc2)cc1` (centres undefined), the melting point lay within 185 to 190 °C.

Take `Clc1ccc2c(c1)C(c1ccccc1)=NCc1c[nH]cc1-2`: the melting point was 203 to 206 °C.

In turn, `CC(Cl)C(CC(=O)c1ccccc1)[N+](=O)[O-]` (centres undefined) yielded a melting point of 115 to 117 °C.

For `Cc1onc(-c2ccccc2)c1C(=O)N[C@@H]1N=C(c2ccccc2)c2ccccc2N(C)C1=O`, the melting point is 123 to 126 °C.

The compound `O=C(Nc1ccccc1)c1c[nH]c2c1C(=O)CCC2` returned a melting point of 225 to 226 °C.

Consider `Cc1nc(C(O)(c2nc(C)c(C)s2)C(C)C)sc1C`, for which the melting point fell in the range of 169 to 171 °C.

Compound `Cn1ccc2cc(-c3ccc(S(=O)(=O)n4ccc(/C=C/C(=O)NO)c4)cc3)ccc21` gave a melting point of 177 to 179 °C.

The compound `Fc1ccc(Cn2c(NC3CCN(CCNc4nccs4)CC3)nc3cncnc32)cc1` gave a melting point of 165 °C.

Consider `COC(=O)N[C@@H]1CCc2ccc(Br)cc2C1=O`, for which the melting point lay within 111 to 112 °C.

Turning to `O=c1[nH]ncc2[nH]c(-c3ccc(OC(F)F)c(OC4CCC4)c3)cc12`, the melting point lay in the range of 289 to 291 °C.

In turn, `Cc1cccc(-c2n[nH]cc2-c2ccc(F)c(-c3c[nH]c(CCO)n3)c2)n1` displayed a melting point of 219 to 220 °C.

On to `O=C1CC(c2coc3ccccc23)=Nc2cc3c(cc21)OCO3`, for which the melting point is greater than 315 °C.

`O=C(O)[C@@H]1O[C@@H]1c1ccccc1`: the melting point is 81.5 to 83 °C.

`CCS(=O)(=O)Nc1cc(-c2ncnc(OC)c2C#N)c(F)cc1C#N` gave a melting point of 187 to 189 °C.

As for `Cc1cc(-c2c(-c3ccc(S(C)(=O)=O)cc3)cnn(-c3cccc(Cl)c3)c2=O)ccc1F`, the melting point was 228 to 230 °C.

The compound `CC(C)(C)OC(=O)C(F)=CC1C(C(=O)OC(C#N)c2ccc(F)c(Oc3ccccc3)c2)C1(C)C` (centres undefined) had a melting point of 122 °C.

The compound `CCCOc1cc(C2(C)CNC(=O)O2)ccc1OC` (centres undefined) showed a melting point of 78 °C.

Regarding `O=C(/C=C/C=C/c1ccc(Br)cc1)NCCCC(=O)NO`, the melting point was in the range of 173 to 175 °C.

In turn, `Cc1cc2c(cc1S(=O)(=O)c1ccc(F)cc1)OC(C(=O)O)O2` (centres undefined) came in with a melting point of 157 to 158 °C.

The compound `O=C1NC(=O)C(Cc2ccc(OCCON=Cc3cccc(-c4ccccc4)c3)cc2)S1` (centres undefined) came in with a melting point of 128 °C.

Compound `CC1(C)C(=O)C(C)(C)c2cc([N+](=O)[O-])c([N+](=O)[O-])cc21` came in with a melting point of 212 to 218 °C.

For the compound `CCOC(=O)C1CCCCC1Nc1cn[nH]c1` (centres undefined), the melting point lay within 92 to 94 °C.

The compound `O=C1NC(=O)c2c(Cl)cccc21` registered a melting point of 236 to 238 °C.

Take `O=C1CC(c2ccccc2)C(c2ccccc2)=NN1` (centres undefined): the melting point lay within 221 to 223 °C.

`CCCCN(CCCC)CCCCCCOc1ccc([C@H]2c3ccc(OCc4ccccc4)cc3OC[C@H]2c2ccccc2)cc1` (racemic) showed a melting point of 72 to 73.5 °C.

For the compound `Fc1ccc(CN2CC=C(c3cc4ccccc4s3)CC2)cc1`, the melting point is 142 to 144 °C.

`CC(C)(C)OC(=O)N1CCC(NC(=O)c2ccc(-n3cc4ccccc4n3)cc2)CC1` displayed a melting point of 202 to 204 °C.

For `CCc1c(C(C)C)nc(C(C)C)c(C(C)O)c1-c1ccc(F)cc1O` (centres undefined), the melting point is 190 to 191 °C.

Turning to `O=C(c1ccccc1)c1ccc(N2CCN(c3ccncc3)CC2)cc1`, the melting point is 136 to 137 °C.

Turning to `Cc1nc(-c2ccccc2Cl)n2c1nnc1ccc(N3CCCCC3)cc12`, the melting point is 207 to 210 °C.

`COc1ccc([C@]2(C)CNC(=O)O2)cc1O` gave a melting point of 142 °C.

`O=C1c2cccc(OCc3ccccc3)c2C(=O)c2c(Cl)ccc(Cl)c21`: the melting point fell in the range of 122 to 126 °C.

`N#Cc1ccc2[nH]c(O)c(-c3ccc(CN4CCOCC4)cn3)c2c1` had a melting point of 228 to 230 °C.
